# Measurements taken from ChEMBL document CHEMBL1153080, “Cytotoxicity mechanisms of pyrazino[1,2-b]isoquinoline-4-ones and SAR studies” (2009).
# Calls of active or inactive are those of the source. The rule behind the calls is not given here.
# Columns and labels:
# MDA-MB-231 = assay: Cytotoxicity against human MDA-MB-231 cells at < […] after 48 hrs by SRB assay; format: functional, cell-based
# HT-29 [1] = assay: Cytotoxicity against human HT-29 cells at < […] after 48 hrs by SRB assay; format: functional, cell-based
# A549 [2] = assay: Cytotoxicity against human A549 cells at < […] after 48 hrs by SRB assay; format: functional, cell-based
# HT-29 [3] = assay: Induction Cyclin B1 protein degradation in human HT-29 cells at 41 ug/mL after 24 to 60 hrs by Western blotting; format: functional, cell-based
# HT-29 [4] = assay: Induction cdc2 protein degradation in 10 uM proteasome inhibitor MG132 pretreated human HT-29 cells at 41 ug/mL after 6 to 36 hrs by Western blotting; format: functional, cell-based
# HT-29 [5] = assay: Cell cycle arrest in 0.2 ug/mL nocodazole pretreated human HT-29 cells assessed as accumulation at S phase at 41 ug/mL after 72 hrs using propidium iodide staining by flow cytometry; format: functional
# HT-29 [6] = assay: Induction of DNA damage signaling pathways in human HT-29 cells assessed as Chk2 phosphorylation at 41 ug/mL after 24 hrs by Western blotting; format: functional, cell-based
# HT-29 [7] = assay: Induction cdc2 protein degradation in human HT-29 cells at 41 ug/mL after 24 to 60 hrs by Western blotting; format: functional, cell-based
# HT-29 [8] = assay: Induction Wee1 protein degradation in human HT-29 cells at 41 ug/mL after 24 to 60 hrs by Western blotting; format: functional, cell-based
# HT-29 [9] = assay: Cell cycle arrest in human HT-29 cells assessed as accumulation at G1 phase at 41 ug/mL after 24 hrs using propidium iodide staining by flow cytometry; format: functional
# HT-29 [10] = assay: Induction of apoptosis in human HT-29 cells at 41 ug/mL after 72 hrs using propidium iodide staining by flow cytometry; format: functional
# HT-29 [11] = assay: Induction Wee1 protein degradation in 10 uM proteasome inhibitor MG132 pretreated human HT-29 cells at 41 ug/mL after 6 to 36 hrs by Western blotting; format: functional, cell-based
# HT-29 [12] = assay: Induction of apoptosis in human HT-29 cells at 41 ug/mL after 24 hrs using propidium iodide staining by flow cytometry; format: functional
# HT-29 [13] = assay: Growth inhibition of human HT-29 cells; format: functional
# HT-29 [14] = assay: Cell cycle arrest in human HT-29 cells assessed as accumulation at G1 phase at 41 ug/mL after 72 hrs using propidium iodide staining by flow cytometry; format: functional
# HT-29 [15] = assay: Induction Wee1 protein degradation in 300 uM protein synthesis inhibitor cycloheximide pretreated human HT-29 cells at 41 ug/mL after 6 to 36 hrs by Western blotting; format: functional, cell-based
# HT-29 [16] = assay: Cell cycle arrest in human HT-29 cells assessed as accumulation at S phase at 41 ug/mL after 72 hrs using propidium iodide staining by flow cytometry; format: functional
# HT-29 [17] = assay: Cell cycle arrest in 0.2 ug/mL nocodazole pretreated human HT-29 cells assessed as accumulation at G2/M phase at 41 ug/mL after 72 hrs using propidium iodide staining by flow cytometry; format: functional
# HT-29 [18] = assay: Induction of DNA damage signaling pathways in human HT-29 cells assessed as p53 phosphorylation at 41 ug/mL after 24 hrs by Western blotting; format: functional, cell-based
# HT-29 [19] = assay: Reduction of phosphorylated cdc2 protein level in 0.2 ug/mL nocodazole pretreated human HT-29 cells at 41 ug/mL after 24 to 72 hrs by Western blotting; format: functional, cell-based
# HT-29 [20] = assay: Cell cycle arrest in human HT-29 cells assessed as accumulation at S phase at 41 ug/mL after 24 hrs using propidium iodide staining by flow cytometry; format: functional
# HT-29 [21] = assay: Induction of DNA damage signaling pathways in human HT-29 cells assessed as Chk1 phosphorylation at 41 ug/mL after 24 hrs by Western blotting; format: functional, cell-based
# HT-29 [22] = assay: Induction of increase in histone gamma-H2A.X levels in human HT-29 cells at 41 ug/mL after 24 to 60 hrs by Western blotting; format: functional, cell-based
# HT-29 [23] = assay: Induction of apoptosis in 0.2 ug/mL nocodazole pretreated human HT-29 cells at 41 ug/mL after 72 hrs using propidium iodide staining by flow cytometry; format: functional
# HT-29 [24] = assay: Induction cdc2 protein degradation in 300 uM protein synthesis inhibitor cycloheximide pretreated human HT-29 cells at 41 ug/mL after 6 to 36 hrs by Western blotting; format: functional, cell-based
# HT-29 [25] = assay: Cell cycle arrest in human HT-29 cells assessed as accumulation at G2/M phase at 41 ug/mL after 24 hrs using propidium iodide staining by flow cytometry; format: functional
# HT-29 [26] = assay: Cytotoxicity against human HT-29 cells assessed as reduction in cell viability at 41 ug/mL after 48 hrs by MTT assay; format: functional; details: HT-29, 48 h
# HT-29 [27] = assay: Cell cycle arrest in 0.2 ug/mL nocodazole pretreated human HT-29 cells assessed as accumulation at G1 phase at 41 ug/mL after 72 hrs using propidium iodide staining by flow cytometry; format: functional
# HT-29 [28] = assay: Cell cycle arrest in human HT-29 cells assessed as accumulation at G2/M phase at 41 ug/mL after 72 hrs using propidium iodide staining by flow cytometry; format: functional
# A549 [29] = assay: Growth inhibition of human A549 cells; format: functional
compound,measurement,setting,value
COc1c(C)c(OC)c(OC)c2c1C[C@H]1CN(C(=O)OC(C)C)CC(=O)N1[C@H]2CO[Si](c1ccccc1)(c1ccccc1)C(C)(C)C (relative stereo),inhibition,MDA-MB-231,inactive
same,inhibition,HT-29 [1],inactive
same,inhibition,A549 [2],inactive
COc1c(C)c(OC)c(OC)c2c1C[C@H]1CN(C(=O)OC(C)C)C[C@@H](C#N)N1[C@H]2COC(=O)/C=C/c1ccccc1 (relative stereo),inhibition,MDA-MB-231,inactive
same,inhibition,HT-29 [1],inactive
same,inhibition,A549 [2],inactive
COc1c(C)c(OC)c(OC)c2c1C[C@H]1CN(C)CC(=O)N1[C@H]2CO (relative stereo),inhibition,MDA-MB-231,inactive
same,inhibition,HT-29 [1],inactive
same,inhibition,A549 [2],inactive
COc1c(C)c(OC)c(OC)c2c1C[C@H]1CN(C(=O)OC(C)C)CC(=O)N1[C@H]2CO,inhibition,MDA-MB-231,inactive
same,inhibition,HT-29 [1],inactive
same,inhibition,A549 [2],inactive
COc1c(C)c(OC)c(OC)c2c1C[C@H]1CN(C(=O)OC(C)C)CC(=O)N1[C@H]2COCc1ccccc1,Activity,HT-29 [3],inactive
same,Activity,HT-29 [4],Active
same,Activity,HT-29 [5],13.4%
same,Activity,HT-29 [6],inactive
same,Activity,HT-29 [7],inactive
same,Activity,HT-29 [8],inactive
same,Activity,HT-29 [9],61.4%
same,Activity,HT-29 [10],29.9%
same,Activity,HT-29 [11],inactive
same,inhibition,MDA-MB-231,Active
same,Activity,HT-29 [12],4.3%
same,GI,HT-29 [13],1.95 ×10⁻⁷ M
same,Activity,HT-29 [14],45.9%
same,Activity,HT-29 [15],Active
same,Activity,HT-29 [16],12.8%
same,Activity,HT-29 [17],18.3%
same,Activity,HT-29 [18],inactive
same,Activity,HT-29 [19],Active
same,Activity,HT-29 [20],15.2%
same,Activity,HT-29 [21],inactive
same,inhibition,HT-29 [1],Active
same,Activity,HT-29 [22],inactive
same,Activity,HT-29 [23],35.6%
same,Activity,HT-29 [24],Active
same,Activity,HT-29 [25],16.4%
same,inhibition at 41 µg/mL,HT-29 [26],80%
same,Activity,HT-29 [27],31%
same,inhibition,A549 [2],Active
same,Activity,HT-29 [28],10.4%
COc1c(C)c(OC)c(OC)c2c1C[C@H]1CN(C(=O)OC(C)C)C[C@H]3OC[C@@H]2N13 (relative stereo),inhibition,MDA-MB-231,inactive
same,inhibition,HT-29 [1],inactive
same,inhibition,A549 [2],inactive
COc1c(C)c(OC)c(OC)c2c1C[C@H]1CN(C(=O)OC(C)C)C[C@@H](C#N)N1[C@H]2COC(=O)c1cccc2ccccc12 (relative stereo),inhibition,MDA-MB-231,inactive
same,inhibition,HT-29 [1],inactive
same,inhibition,A549 [2],inactive
COc1c(C)c(OC)c(OC)c2c1C[C@H]1CNCC(=O)N1[C@H]2CO (relative stereo),inhibition,MDA-MB-231,inactive
same,inhibition,HT-29 [1],inactive
same,inhibition,A549 [2],inactive
COc1c(C)c(OC)c(OC)c2c1C[C@H]1CN(C(=O)OC(C)C)C[C@@H](C#N)N1[C@H]2CO (relative stereo),inhibition,MDA-MB-231,inactive
same,inhibition,HT-29 [1],inactive
same,inhibition,A549 [2],inactive
COc1c(C)c(OC)c(OC)c2c1C[C@H]1[C@@H](O)N(C(=O)OC(C)C)CC(=O)N1[C@H]2COCc1ccccc1,GI,A549 [29],5.68 ×10⁻⁶ M
COc1c(C)c(OC)c(OC)c2c1C[C@H]1CN(C)C[C@H]3OC[C@@H]2N13 (relative stereo),inhibition,MDA-MB-231,inactive
same,inhibition,HT-29 [1],inactive
same,inhibition,A549 [2],inactive
